One assay deals with SARS-CoV-2 D614G. The assay is described as follows: SARS-CoV-2 antiviral activity in a human nasal epithelial model. The format is cell-based. The conditions noted are these: HNE model.
Another assay has as its system SARS-CoV-2. The assay is described as follows: SARS-CoV-2 replication on Calu-3 cells. Type of assay: cell-based. The conditions noted are these: non-cytotoxic concentrations.
Assay [1] concerns wildtype SARS-CoV-2 virus (D614G variant). The arrangement: species or system golden Syrian hamsters. The conditions noted are these: hamster, in vivo.

On to `CCC(CC)COC(=O)[C@H](C)N[P@](=O)(OC[C@H]1O[C@@](C#N)(c2ccc3c(N)ncnn23)[C@H](O)[C@@H]1O)Oc1ccccc1` [Remdesivir], for which the “Effect on viral replication (in words)” value in the assay with SARS-CoV-2 D614G (drug in the basal medium) is recorded as “completely blocked it”.
Turning to `OC[C@H]1O[C@@H]2O[C@H]3[C@H](O)[C@@H](O)[C@@H](O[C@H]4[C@H](O)[C@@H](O)[C@@H](O[C@H]5[C@H](O)[C@@H](O)[C@@H](O[C@H]6[C@H](O)[C@@H](O)[C@@H](O[C@H]7[C@H](O)[C@@H](O)[C@@H](O[C@H]8[C@H](O)[C@@H](O)[C@@H](O[C@H]1[C@H](O)[C@H]2O)O[C@@H]8CO)O[C@@H]7CO)O[C@@H]6CO)O[C@@H]5CO)O[C@@H]4CO)O[C@@H]3CO` [β-CD, ß-Cyclodextrin], the “Inhibition of SARS-CoV-2 viral activity (in words)” value in the assay on SARS-CoV-2 (D614G variant) and in the assay with SARS-CoV-2 (Omicron BA.1 variant) was “inhibited the SARS-CoV-2 viral activity” in each case.
Regarding Methyl-β-cyclodextrin [MβCD], the “Reduction of viral replication” value worked out at 11% in the assay on SARS-CoV-2 D614G (2.5 mM constantly in the basal side) and 74% in the assay on SARS-CoV-2 D614G (2.5 mM on the apical side (initial addition), 48 h pi). Also, the “Prophylactic effect (in words)” value in assay [1] was “less potent prophylactic effect”.
